Assay results as given in ChEMBL document CHEMBL4602659, “β,β-Dimethylacrylshikonin Induces Apoptosis in Melanoma Cell Lines by NOXA Upregulation” (J Nat Prod, 2020).
pIC50: −log10 of the molar value. Activity calls are given as the source filed them. No cut-off for these calls is given here.

Experiments:
SBcl2 [1] = assay: Cytotoxicity against human SBcl2 cells harboring NRAS Q61I mutant assessed as reduction in cell viability after 24 hrs by EZ4U reagent based spectrophotometric method; assay type: functional; conditions: SBcl2, 24 h
WM164 [2] = assay: Induction of apoptosis in human WM164 cells assessed as early apoptotic cells at IC50 concentration after 24 hrs by Annexin V/SYTOX Green based flow cytometric analysis (reference value: 2.72%); assay type: functional
WM164 [3] = assay: Antitumour activity against human WM164 cells xenografted in NU(NCr)-Foxn1 mouse assessed as increase in caspase -activity at 1 to 4 ug/g administered for three consecutive days with 1 day interval for four cycle by hematoxylin and eosin staining based microscopic analysis; assay type: functional, cell-based
MUGMel2 [4] = assay: Induction of apoptosis in human MUGMel2 cells assessed as late apoptotic cells at IC50 concentration after 6 hrs by Annexin V/SYTOX Green based flow cytometric analysis (reference value: 5.69%); assay type: functional
MUGMel1 [5] = assay: Induction of apoptosis in human MUGMel1 cells assessed as late apoptotic cells at IC50 concentration after 24 hrs by Annexin V/SYTOX Green based flow cytometric analysis (reference value: 1.18%); assay type: functional
WM164 [6] = assay: Induction of apoptosis in human WM164 cells treated with scrambled si-RNA assessed as caspase -activity at IC50 concentration after 24 hrs by Western blot analysis; assay type: functional, cell-based
WM793 [7] = assay: Induction of apoptosis in human WM793 cells assessed as early apoptotic cells at IC50 concentration after 6 hrs by Annexin V/SYTOX Green based flow cytometric analysis (reference value: 2.77%); assay type: functional
MUGMel1 [8] = assay: Induction of apoptosis in human MUGMel1 cells assessed as necrotic cells at IC50 concentration after 6 hrs by Annexin V/SYTOX Green based flow cytometric analysis (reference value: 0.39%); assay type: functional
WM793 [9] = assay: Induction of apoptosis in human WM793 cells assessed as viable cells at IC50 concentration after 6 hrs by Annexin V/SYTOX Green based flow cytometric analysis (reference value: 96.2%); assay type: functional
WM164 [10] = assay: Induction of apoptosis in human WM164 cells assessed as effect on BAD protein expression at IC50 concentration after 24 hrs by Western blot analysis; assay type: functional, cell-based
WM164 [11] = assay: Induction of apoptosis in human WM164 cells assessed as effect on BAD mRNA expression at IC50 concentration after 6 to 24 hrs by RT-qPCR analysis; assay type: functional, cell-based
WM793 [12] = assay: Induction of apoptosis in human WM793 cells assessed as late apoptotic cells at IC50 concentration after 24 hrs by Annexin V/SYTOX Green based flow cytometric analysis (reference value: 0.66%); assay type: functional
SBcl2 [13] = assay: Induction of apoptosis in human SBcl2 cells assessed as increase in caspase -3 activity at IC50 concentration after 24 hrs by Alexa Fluor 647 antibody based flow cytometric analysis; assay type: functional, cell-based
WM793 [14] = assay: Induction of apoptosis in human WM793 cells assessed as effect on BAD mRNA expression at IC50 concentration after 6 to 24 hrs by RT-qPCR analysis; assay type: functional, cell-based
MUGMel2 [15] = assay: Induction of apoptosis in human MUGMel2 cells assessed as viable cells at IC50 concentration after 24 hrs by Annexin V/SYTOX Green based flow cytometric analysis (reference value: 85.95%); assay type: functional
B16-F0 = assay: Cytotoxicity against mouse B16F0 cells assessed as reduction in cell viability after 48 hrs by MTT assay; assay type: functional, cell-based; conditions: B16F0, 48 h
WM164 [16] = assay: Cytotoxicity against human WM164 cells harboring BRAF V600E mutant assessed as reduction in cell viability after 48 hrs by EZ4U reagent based spectrophotometric method; assay type: functional; conditions: WM164, 48 h

CC(C)=CC[C@@H](OC(=O)C=C(C)C)C1=CC(=O)c2c(O)ccc(O)c2C1=O [DIMETHYLACRYLSHIKONIN]
pIC50 (SBcl2 [1]): 5.72 | Activity (WM164 [2]): 12.85% | Activity (WM164 [3]): Active | Activity (MUGMel2 [4]): 13.53% | Activity (MUGMel1 [5]): 10.11% | Activity (WM164 [6]): inactive | Activity (WM793 [7]): 8.45% | Activity (MUGMel1 [8]): 0.11% | Activity (WM793 [9]): 88.54% | Activity (WM164 [10]): inactive | Activity (WM164 [11]): inactive | Activity (WM793 [12]): 2.78% | Activity (SBcl2 [13]): Active | Activity (WM793 [14]): inactive | Activity (MUGMel2 [15]): 45.04% | pIC50 (B16-F0): 5.29 to 5.92 | pIC50 (WM164 [16]): 5.52
